Test results as given in patent US20230028441A1, “NOVEL HETEROARYL-TRIAZOLE COMPOUNDS AS PESTICIDES” (Bayer Aktiengesellschaft, priority 2019, published 2023).

Key:
Assay type in all cases: in vivo
[1] = tested on: larvae of the banded cucumber beetle (Diabrotica balteata); test: Diabrotica balteata spray test; conditions: 168 h, after 7 days, wheat seeds, read-out: efficacy (seedlings grown up); for pest or weed control at 160 µg/disc, 500 g/ha: 500 g/ha (=160 μg/well); for pest or weed control at 32 µg/disc, 100 g/ha: 100 g/ha (=32 μg/well)
In short: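 Efficacy (%) read at day 7: 100% means seedlings grew like untreated, uninfested controls; 0% means no seedlings grew. Wheat seeds germinated 1 day on agar, sprayed with emulsified compound solution (1000 ppm emulsifier in water), then each well infested with 10-20 larvae.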

[2] = tested on: adult unfed cat fleas (Ctenocephalides felis); test: Ctenocephalides felis oral test; conditions: 48 h, 100 ppm in cattle blood, after 2 days
In short: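 Percent flea mortality recorded at 2 days. Compound was dissolved in dimethyl sulfoxide and diluted into cattle blood, which ~20 unfed adult cat fleas ingested through parafilm from a 37°C-heated chamber, their own chamber kept at room temperature.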

[3] = tested on: southern root-knot nematode (Meloidogyne incognita); test: Meloidogyne incognita test; conditions: 336 h, after 14 days, read-out: nematicidal activity (gall formation)
Procedure: Solvent: 125.0 parts by weight of acetone
To produce a suitable preparation of active compound, 1 part by weight of active compound is mixed with the stated amount of solvent, and the concentrate is diluted with water to the desired concentration.
Vessels are filled with sand, a solution of the active ingredient, a suspension containing eggs and larvae of the southern root-knot nematode (Meloidogyne incognita) and salad seeds. The salad seeds germinate and the seedlings grow. Galls develop in the roots.
After 14 days the nematicidal activity is determined on the basis of the percentage of gall formation. 100% means no galls were found and 0% means the number of galls found on the roots of the treated plants was equal to that in untreated control plants.

[4] = tested on: fall armyworm larvae (Spodoptera frugiperda); test: Spodoptera frugiperda spray test (maize leaf sections); conditions: 168 h
In short: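 Percent kill of Spodoptera frugiperda larvae was recorded 7 days after infesting dried, treated maize leaf sections. Spray solutions were made from an acetone/DMF compound preparation diluted with 1000 ppm emulsifier-containing water.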

[5] = tested on: larvae of the southern green stink bug (Nezara viridula); test: Nezara viridula spray test; conditions: in Hordeum vulgare, 96 h
In short: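 Percent mortality of southern green stink bug larvae read 4 days after spraying infested Hordeum vulgare. Test solutions: compound in acetone plus dimethylformamide, diluted with emulsifier-containing water (1000 ppm alkylarylpolyglycol ether).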

[6] = tested on: adult engorged female ticks (Rhipicephalus microplus); test: Rhipicephalus (Boophilus) microplus injection test; conditions: 168 h, egg deposition after 7 days, read-out: efficacy (infertile eggs); for pest or weed control at 0.004 mg: 4 μg/animal; for pest or weed control at 0.02 mg: 20 μg/animal
In short: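 Efficacy is the share of infertile eggs: 100% means none are fertile, 0% means all are fertile. Egg deposition was checked 7 days after injecting 1 μL of DMSO-diluted compound into the abdomen of five engorged female R. microplus, with doubtful eggs kept about 42 days to hatching. The stock was 10 mg in 0.5 mL DMSO.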

[7] = tested on: green peach aphid (Myzus persicae); test: Myzus persicae oral test; conditions: 120 h
In short: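 Five-day oral feeding assay measuring percent mortality of a mixed aphid population that draws compound-containing sugared IPL41 medium through sealing parafilm; the test preparation derives from 1 part compound per 100 parts acetone, diluted with water.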

[8] = tested on: adult cat fleas (Ctenocephalides felis); test: Ctenocephalides felis in-vitro contact test, adult cat flea; conditions: 5 μg/cm^2 (=500 g/ha), after 48 hours, read-out: efficacy (fleas dead or moribund)
In short: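 Efficacy (%) counts fleas that are dead or moribund, meaning unable to escape heat (45-50 °C, ≤5 min) by climbing. Scoring was done 48 h after 5-10 adults were placed at room temperature in glass tubes. The tubes carried a dried acetone film of compound, 5 μg/cm^2 at 900 ppm.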

[9] = tested on: adult brown dog ticks (Rhipicephalus sanguineus); test: Rhipicephalus sanguineus in-vitro contact test with adult brown dog ticks; conditions: after 48 hours, read-out: efficacy (ticks dead or moribund); for pest or weed control at 1 µg/cm2, 100 g/ha: 1 μg/cm^2 (=100 g/ha); for pest or weed control at 5 µg/cm2, 500 g/ha: 5 μg/cm^2 (=500 g/ha)
In short: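 Efficacy is the percentage of adult ticks dead or moribund, meaning immotile or uncoordinated and unable to escape 45-50° C. heat within 5 min. Read 48 h after 5-10 ticks were enclosed at room temperature in acetone-coated glass tubes. Dose 5 μg/cm^2, from a 900 ppm coating solution.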

[10] = tested on: caterpillars of the fall army worm (Spodoptera frugiperda); test: Spodoptera frugiperda spray test (cotton leaves); conditions: 168 h
Procedure: Solvent: 14 parts by weight of dimethylformamide
Emulsifier: alkylaryl polyglycol ether
(§1) To produce a suitable preparation of active compound, 1 part by weight of active compound is mixed with the stated amount of solvent and is diluted with water, containing an emulsifier concentration of 1000 ppm, to the desired concentration. Further test concentrations are prepared by dilution with emulsifier containing water. Ammonium salt and/or penetration enhancer in a dosage of 1000 ppm are added to the desired concentration if necessary.
Cotton leaves (Gossypium hirsutum) are treated by being sprayed with the preparation of the active compound of the desired concentration and are infested with caterpillars of the fall army worm (Spodoptera frugiperda).
After 7 days mortality in % is determined. 100% means all the caterpillars have been killed and 0% means none of the caterpillars have been killed.

[11] = tested on: green peach aphid (Myzus persicae); test: Myzus persicae spray test; conditions: foliar, 120 h, 100 g/ha, after 5 days, Chinese cabbage leaf disks
Procedure: Solvent: 78.0 parts by weight acetone • 1.5 parts by weight dimethylformamide
Emulsifier: alkylarylpolyglycol ether
as §1, with “solvents” for “solvent”, “water.” for “water. Ammonium salt and/or penetration enhancer in a dosage of 1000 ppm are added to the desired concentration if necessary.”
Chinese cabbage (Brassica pekinensis) leaf disks infected with all instars of the green peach aphid (Myzus persicae), are sprayed with a preparation of the active ingredient of the desired concentration.
After 5 days mortality in % is determined. 100% means all aphids have been killed and 0% means none of the aphids have been killed.

[12] = tested on: cattle tick larvae (Rhipicephalus microplus), strain Parkhurst, resistant against synthetic pyrethroids; test: Rhipicephalus (Boophilus) microplus in-vitro contact test, larval cattle tick; conditions: 5 μg/cm^2 (=500 g/ha), after 48 hours, read-out: efficacy (larvae dead or moribund)
In short: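 Efficacy, 100% meaning all larvae dead or moribund, was judged at 48 h from loss of negative geotactic climbing. Larvae of the Parkhurst strain, 20–50 per tube, were exposed at 27° C and 85% humidity to acetone-coated tube surfaces; 900 ppm corresponded to 5 μg/cm^2.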

[13] = tested on: brown planthopper (Nilaparvata lugens); test: Nilaparvata lugens spray test; conditions: in Oryza sativa, 96 h
In short: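 Rice plants (Oryza sativa) sprayed with compound in acetone/DMF diluted in water containing 1000 ppm alkylarylpolyglycol ether emulsifier, then infested with planthoppers. Mortality % scored after 4 days (100% = all killed, 0% = none killed).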

Row | Structure (SMILES) | pest or weed control at 160 µg/disc, 500 g/ha [1] [%] | mortality at 100 ppm [2] [%] | pest or weed control at 20 ppm [3] [%] | mortality at 500 g/ha [4] [%] | mortality at 100 g/ha [5] [%] | mortality at 500 g/ha [5] [%] | pest or weed control at 0.004 mg [6] [%] | pest or weed control at 0.02 mg [6] [%] | mortality at 4 ppm [7] [%] | pest or weed control at 32 µg/disc, 100 g/ha [1] [%] | pest or weed control at 5 µg/cm2 [8] [%] | pest or weed control at 1 µg/cm2, 100 g/ha [9] [%] | pest or weed control at 5 µg/cm2, 500 g/ha [9] [%] | mortality at 20 ppm [10] [%] | mortality at 100 g/ha [4] [%] | mortality at 100 g/ha [11] [%] | pest or weed control at 5 µg/cm2 [12] [%] | mortality at 500 g/ha [13] [%]
1 | CC(NC(=O)c1cc(Cl)cc(OC(F)(F)F)c1)c1nc(-c2ncccn2)nn1-c1ncccn1 (stereo not shown) [I-051] | 100 | 100 | 100 | 100 | 100 | 100 | 100 | 100 | 100 | – | – | – | – | – | – | – | – | –
2 | CC(NC(=O)c1cc(Cl)cc(Cl)c1)c1nc(-c2ncccn2)nn1-c1ncccn1 (stereo not shown) [I-054] | – | 100 | 90 | – | – | – | – | 100 | 90 | – | – | – | – | – | – | – | – | –
3 | CC(NC(=O)c1cc(Cl)cc(C(F)(F)F)c1)c1nc(-c2ncccn2)nn1-c1ncccn1 (stereo not shown) [I-055] | 100 | 100 | 90 | – | 100 | 100 | – | 100 | – | – | – | – | – | – | – | – | – | –
4 | CC(NC(=O)c1cc(Cl)cc(S(C)(=O)=O)c1)c1nc([S+]([O-])CC(F)(F)F)nn1-c1ccc(Cl)cn1 (stereo not shown) [I-066] | – | 100 | 90 | – | – | – | 100 | 100 | – | – | – | – | – | – | – | – | – | –
5 | CNc1nc(C(C)NC(=O)c2cc(Br)cc(C(F)(F)F)c2)n(-c2ncccn2)n1 (stereo not shown) [I-092] | – | 100 | – | – | 100 | – | 100 | – | 100 | 100 | 100 | 100 | 100 | 80 | 100 | 90 | 100 | –
6 | CC(NC(=O)c1cc(OC(F)(F)F)cc(C2CC2)c1)c1nc(N)nn1-c1ncccn1 (stereo not shown) [I-097] | – | 100 | – | – | 100 | – | 100 | – | 100 | 100 | 90 | – | – | 100 | 100 | 100 | 90 | –
7 | CNc1nc(C(C)NC(=O)c2cc(OC(F)(F)F)cc(C3CC3)c2)n(-c2ncccn2)n1 (stereo not shown) [I-101] | – | 100 | – | – | – | – | 100 | – | 100 | 100 | 100 | 100 | 100 | 100 | 100 | 90 | 100 | –
8 | CNc1nc(C(C)NC(=O)c2cc(Br)cc(OC(F)(F)F)c2)n(-c2ncccn2)n1 (stereo not shown) [I-103] | – | 100 | – | – | 100 | – | 100 | – | 100 | 100 | 100 | 100 | 100 | 100 | 100 | 90 | 100 | –
9 | CNc1nc([C@H](C)NC(=O)c2cc(Cl)cc(OC(F)(F)F)c2)n(-c2ncccn2)n1 [I-129] | – | – | – | – | – | 100 | – | – | – | 100 | 100 | 80 | 80 | 100 | 100 | 90 | 100 | 90
10 | C[C@H](NC(=O)c1cc(Br)cc(Br)c1)c1nc(N(C)C)nn1-c1ncccn1 [I-140] | – | – | – | – | – | 90 | – | – | – | 100 | 100 | 100 | 100 | 100 | 100 | 90 | 100 | 90
11 | C[C@H](NC(=O)c1cc(OC(F)(F)F)cc(C2CC2)c1)c1nc(N2CCOCC2)nn1-c1ncccn1 [I-146] | – | – | 100 | – | – | 100 | – | – | – | 100 | – | – | – | – | 100 | – | 90 | –
12 | C[C@H](NC(=O)c1cc(Br)cc(OC(F)(F)F)c1)c1nc(N2CCOCC2)nn1-c1ncccn1 [I-147] | – | – | 100 | – | – | – | – | – | – | 100 | – | – | – | – | – | – | 100 | –
13 | CON(C)c1nc([C@H](C)NC(=O)c2cc(OC(F)(F)F)cc(C3CC3)c2)n(-c2ncccn2)n1 [I-152] | – | – | – | – | – | 100 | – | – | – | 100 | – | – | – | 100 | 100 | 90 | – | 100
14 | C[C@H](NC(=O)c1cc(Cl)cc(C(C)(C)C#N)c1)c1nc(N)nn1-c1ccc(C#N)cn1 [I-155] | – | – | – | – | – | 100 | – | – | – | 100 | 100 | 100 | 100 | 100 | 100 | 100 | 100 | 100
